Assay results from patent US9290487B2, “Pharmaceutical composition for treating diabetes” (Ajinomoto Co., Inc., priority 2011, dated 2016).

Each molecule was assayed against human GYS1 (glycogen synthase) (Homo sapiens (Human), UniProt P13807) (assay: Measurement of glycogen synthase activity (coupled pyruvate kinase/lactate dehydrogenase assay, absorbance at 340 nm)). Settings: concentration inducing relative activity of 50% (100% = Ex. 1 of WO/2011/058154 at 10 μM); incubation at 30° C. for 25 minutes (Examples 1 to 10).
Type: biochemical
Protocol: A human GYS1 expression plasmid (pCDNA3.1(+)-hGYS1) was constructed by the following method. Using a human skeletal muscle cDNA of Human MTC Panel I (Takara Bio Inc., 636742) as a template, a human GYS1 gene was amplified by a PCR method using cloning primers (Forward Primer: ATGCCTTTAAACCGCAC (SEQ ID NO: 1), Reverse Primer: TTAGTTACGCTCCTCGC (SEQ ID NO: 2)). Using the amplified human GYS1 sequence as a template, a restriction enzyme sequence was added by a PCR method using sub-cloning primers (Forward Primer: […] (SEQ ID NO: 3), Reverse Primer: […] (SEQ ID NO: 4)). Then, the human GYS1 gene was introduced between a Xho I site and a Xba I site of pCDNA3.1(+) (Invitrogen Corporation, V790-20).
Glycogen synthase was prepared by the following method according to the published article (THE JOURNAL OF BIOLOGICAL CHEMISTRY Vol. 269, No. 41, 25534-25542, 1994). Human kidney-derived HEK293T cells were seeded in a dish (Thermo Fisher Scientific Inc., 168381) using a 10% FBS-containing DMEM (Nacalai Tesque, Inc., 0845874) medium, and cultured overnight. Then, using Lipofectamine LTX (Invitrogen Corporation, 15338-100), the human GYS1 expression vector was transfected according to the attached manual. After culturing under conditions of 37° C. and 5% CO2 for 2 days, the resultant was dissolved in a lysis buffer (50 mM Tris-HCl (pH 8.0), 10 mM EDTA, 2 mM EGTA, 100 mM NaF, 1 mM PMSF, 1 mM DTT, 1× Complete (Roche Diagnostics K. K., 1873580)), homogenized, and then centrifuged at 16000×g at 4° C. for 15 minutes. To the precipitated fraction, a lysis buffer was added. Re-dissolved fractions were used as glycogen synthase for evaluation.
The glycogen synthase activity was measured by the following method. To a polystyrene 96-well plate, a solution containing 30 mM glycylglycine (pH 7.3), 40 mM KCl, 20 mM MgCl2, 9.2% DMSO containing one of the test compounds at various concentrations, and 10 mM glucose-6-phosphate (Sigma-Aldrich Corporation, G7879) was added by 12 μL/well.
Next, a substrate solution containing 30 mM glycylglycine (pH 7.3), 4.3 mg/mL of glycogen (Sigma-Aldrich Corporation, G8876), 21.6 mM UDP-glucose (Sigma-Aldrich Corporation, U4625), 21.6 mM phosphoenolpyruvic acid (Sigma-Aldrich Corporation, P0564), and 4.05 mM NADH (Sigma-Aldrich Corporation, N8129) was added by 18 μL/well.
Further, an enzyme solution containing 50 mM Tris-HCl (pH 8.0), 27 mM DTT (Nacalai Tesque, Inc., 14128-04), 0.2 mg/mL of bovine serum albumin, 0.17 mg/mL of the glycogen synthase, 1.5 μL of a pyruvate kinase/lactate dehydrogenase solution (Sigma-Aldrich Corporation, P0294) was added by 18 μL/well to prepare a reaction solution. After the reaction solution was incubated (at 30° C. for 25 minutes for Examples 1 to 10, at 37° C. for 20 minutes for Examples 11 to 75), the absorbance at 340 nm was measured using Benchmark Plus (Bio-Rad Laboratories, Inc.).
The activities of the test compounds were calculated by the following method. The change in the absorbance (ΔA340) was calculated by subtracting the absorbance at 340 nm of the reaction solution containing the compound and DMSO from the absorbance at 340 nm of a reaction solution not containing the compound but containing only DMSO. The ΔA340 of the reaction solution containing the compound of Example 1 in WO/2011/058154 at the final concentration of 10 μM was taken as 100% to calculate the relative activity (%) of the test compounds at various concentrations. EC50 representing the concentration of the compound which induces an increase in the relative activity to 50% was calculated using XLfit (idbs).

human GYS1 (glycogen synthase), sequence (P13807 whole entry): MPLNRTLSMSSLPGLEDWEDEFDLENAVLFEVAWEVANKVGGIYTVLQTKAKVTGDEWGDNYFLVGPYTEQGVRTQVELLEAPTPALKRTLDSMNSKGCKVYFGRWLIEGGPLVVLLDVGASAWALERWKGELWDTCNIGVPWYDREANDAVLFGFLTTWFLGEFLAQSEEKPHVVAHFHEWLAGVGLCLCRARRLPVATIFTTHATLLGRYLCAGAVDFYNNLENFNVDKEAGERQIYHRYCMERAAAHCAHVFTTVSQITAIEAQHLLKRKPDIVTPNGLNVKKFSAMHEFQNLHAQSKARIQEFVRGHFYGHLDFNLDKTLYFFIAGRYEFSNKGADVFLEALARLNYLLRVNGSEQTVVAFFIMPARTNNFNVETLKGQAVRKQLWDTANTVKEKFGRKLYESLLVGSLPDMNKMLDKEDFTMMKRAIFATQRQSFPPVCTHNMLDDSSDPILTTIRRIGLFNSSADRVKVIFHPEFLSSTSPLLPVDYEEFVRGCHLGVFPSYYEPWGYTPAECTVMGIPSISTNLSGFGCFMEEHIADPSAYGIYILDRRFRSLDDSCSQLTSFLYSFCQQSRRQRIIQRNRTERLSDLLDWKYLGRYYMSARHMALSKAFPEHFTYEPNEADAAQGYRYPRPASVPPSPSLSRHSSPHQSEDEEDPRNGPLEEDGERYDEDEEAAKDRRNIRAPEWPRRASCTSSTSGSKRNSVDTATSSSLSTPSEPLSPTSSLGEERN

Row | EC50 | SMILES
1 | 590 nM | CN(CC(=O)O)C(=O)c1cccc(COc2ccc(-c3cc(F)cc4c3OCC4)cc2)c1 [compound of Ex. 2, N-(3-{[4-(5-fluoro-2,3-dihydro-1-benzofuran-7-yl)phenoxy]methyl}benzoyl)-N-methylglycine]
2 | 110 nM | O=C(O)[C@@H]1CCCN1C(=O)c1cccc(COc2ccc(-c3ccc(F)c4ccoc34)cc2)c1 [compound of Ex. 3, 1-(3-{[4-(4-fluoro-1-benzofuran-7-yl)phenoxy]methyl}benzoyl)-L-proline]
3 | 330 nM | O=C(O)[C@@H]1CCCN1C(=O)c1cccc(COc2ccc(-c3ccc4occc4c3)cc2)c1 [compound of Ex. 6]
4 | 820 nM | Cc1cc2cccc(-c3ccc(OCc4cccc(C(=O)N5CCC[C@H]5C(=O)O)c4)cc3)c2o1 [compound of Ex. 8]
5 | 350 nM | O=C(O)[C@@H]1CCCN1C(=O)c1cccc(COc2ccc(-c3ccc(F)c4c3OCC4)cc2)c1 [compound of Ex. 10]

Same assay, conditions: concentration inducing relative activity of 50% (100% = Ex. 1 of WO/2011/058154 at 10 μM); incubation at 37° C. for 20 minutes (Examples 11 to 75)

Row | EC50 | SMILES
6 | 350 nM | O=C(O)[C@@H]1CCCN1C(=O)c1cccc(COc2ccc(-c3cc(F)cc4ccoc34)cc2)c1 [compound of Ex. 12, 1-(3-{[4-(5-fluoro-1-benzofuran-7-yl)phenoxy]methyl}benzoyl)-L-proline]
7 | 270 nM | O=C(O)[C@@H]1CCCN1C(=O)c1cccc(COc2ccc(-c3ccc(F)c4c3OCO4)cc2)c1 [compound of Ex. 13, 1-(3-{[4-(7-fluoro-1,3-benzodioxol-4-yl)phenoxy]methyl}benzoyl)-L-proline]
8 | 70 nM | O=C(O)[C@@H]1CCCN1C(=O)c1cccc(COc2ccc(-c3cc(F)c4occc4c3)cc2)c1 [compound of Ex. 14, 1-(3-{[4-(7-fluoro-1-benzofuran-5-yl)phenoxy]methyl}benzoyl)-L-proline]
9 | 35 nM | O=C(O)[C@@H]1CCCN1C(=O)c1cccc(COc2ccc(-c3cc4ccoc4c(F)c3F)cc2)c1 [compound of Ex. 16, 1-(3-{[4-(6,7-difluoro-1-benzofuran-5-yl)phenoxy]methyl}benzoyl)-L-proline]
10 | 270 nM | O=C(O)[C@@H]1CCCN1C(=O)c1cccc(COc2ccc(-c3cc(F)c4occc4c3F)cc2)c1 [compound of Ex. 17, 1-(3-{[4-(4,7-difluoro-1-benzofuran-5-yl)phenoxy]methyl}benzoyl)-L-proline]
11 | 64 nM | O=C(O)[C@@H]1CCCN1C(=O)c1cccc(COc2ccc(-c3c(F)cc(F)c4ccoc34)cc2)c1 [compound of Ex. 20, 1-(3-{[4-(4,6-difluoro-1-benzofuran-7-yl)phenoxy]methyl}benzoyl)-L-proline]
12 | 54 nM | Cc1coc2c(-c3ccc(OCc4cccc(C(=O)N5CCC[C@H]5C(=O)O)c4)cc3)cc(F)c(F)c12 [compound of Ex. 21, 1-(3-{[4-(4,5-difluoro-3-methyl-1-benzofuran-7-yl)phenoxy]methyl}benzoyl)-L-proline]
13 | 110 nM | Cc1cc2c(F)c(F)cc(-c3ccc(OCc4cccc(C(=O)N5CCC[C@H]5C(=O)O)c4)cc3)c2o1 [compound of Ex. 23, 1-(3-{[4-(4,5-difluoro-2-methyl-1-benzofuran-7-yl)phenoxy]methyl}benzoyl)-L-proline]
14 | 670 nM | O=C(O)[C@@H]1CCCN1C(=O)c1cccc(COc2ccc(-c3cccc4c3CCC4)cc2)c1 [compound of Ex. 24, 1-(3-{[4-(2,3-dihydro-1H-inden-4-yl)phenoxy]methyl}benzoyl)-L-proline]
15 | 400 nM | O=C(O)[C@@H]1CCCN1C(=O)c1cccc(COc2ccc(-c3ccc(F)c4occc34)cc2)c1 [compound of Ex. 25, 1-(3-{[4-(7-fluoro-1-benzofuran-4-yl)phenoxy]methyl}benzoyl)-L-proline]
16 | 210 nM | O=C(O)[C@@H]1CCCN1C(=O)c1cccc(COc2ccc(-c3ccc(F)c4c3C=CCO4)cc2)c1 [compound of Ex. 27, 1-(3-{[4-(8-fluoro-2H-chromen-5-yl)phenoxy]methyl}benzoyl)-L-proline]
17 | 890 nM | O=C(O)[C@@H]1CCCN1C(=O)c1cccc(COc2ccc(-c3cccc4ccsc34)cc2)c1 [compound of Ex. 28, 1-(3-{[4-(1-benzothien-7-yl)phenoxy]methyl}benzoyl)-L-proline]
18 | 230 nM | O=C(O)[C@@H]1CCCN1C(=O)c1cccc(COc2ccc(-c3ccc(F)c4[nH]ccc34)cc2)c1 [compound of Ex. 29, 1-(3-{[4-(7-fluoro-1H-indol-4-yl)phenoxy]methyl}benzoyl)-L-proline]
19 | 140 nM | O=C(O)[C@@H]1CCCN1C(=O)c1cccc(COc2ccc(-c3cc(F)c(F)c4occc34)cc2)c1 [compound of Ex. 30, 1-(3-{[4-(6,7-difluoro-1-benzofuran-4-yl)phenoxy]methyl}benzoyl)-L-proline]
20 | 100 nM | O=C(O)[C@@H]1CCCN1C(=O)c1cccc(COc2ccc(-c3cc(F)c(F)c4c3C=CCO4)cc2)c1 [compound of Ex. 31, 1-(3-{[4-(7,8-difluoro-2H-chromen-5-yl)phenoxy]methyl}benzoyl)-L-proline]
21 | 34 nM | O=C(O)[C@@H]1CCCN1C(=O)c1cccc(COc2ccc(-c3cc(F)c(F)c4[nH]ccc34)cc2)c1 [compound of Ex. 33, 1-(3-{[4-(6,7-difluoro-1H-indol-4-yl)phenoxy]methyl}benzoyl)-L-proline]
22 | 17 nM | C#CCOc1cc(F)c(F)cc1-c1ccc(OCc2cccc(C(=O)N3CCC[C@H]3C(=O)O)c2)cc1 [compound of Ex. 34, 1-[3-({[4′,5′-difluoro-2′-(prop-2-yn-1-yloxy)biphenyl-4-yl]oxy}methyl)benzoyl]-L-proline]
23 | 15 nM | N#CCOc1cc(F)c(F)cc1-c1ccc(OCc2cccc(C(=O)N3CCC[C@H]3C(=O)O)c2)cc1 [compound of Ex. 35, 1-[3-({[2′-(cyanomethoxy)-4′,5′-difluorobiphenyl-4-yl]oxy}methyl)benzoyl]-L-proline]
24 | 110 nM | C=CCOc1cc(F)c(F)cc1-c1ccc(OCc2cccc(C(=O)N3CCC[C@H]3C(=O)O)c2)cc1 [compound of Ex. 36, 1-[3-({[2′-(allyloxy)-4′,5′-difluorobiphenyl-4-yl]oxy}methyl)benzoyl]-L-proline]
25 | 10 nM | [2H]C([2H])([2H])Oc1cc(F)c(F)cc1-c1ccc(OCc2cccc(C(=O)N3CCC[C@H]3C(=O)O)c2)cc1 [compound of Ex. 37, 1-(3-{[(4′,5′-difluoro-2′-d3 methoxybiphenyl-4-yl)oxy]methyl}benzoyl)-L-proline]
26 | 29 nM | CSc1cc(F)c(F)cc1-c1ccc(OCc2cccc(C(=O)N3CCC[C@H]3C(=O)O)c2)cc1 [compound of Ex. 38, 1-[3-({[4′,5′-difluoro-2′-(methylthio)biphenyl-4-yl]oxy}methyl)benzoyl]-L-proline]
27 | 42 nM | O=C(O)[C@@H]1CCCN1C(=O)c1cccc(COc2ccc(-c3cc(F)c(F)c4ccsc34)cc2)c1 [compound of Ex. 39, 1-(3-{[4-(4,5-difluoro-1-benzothien-7-yl)phenoxy]methyl}benzoyl)-L-proline]
28 | 100 nM | Cc1cc2c(-c3ccc(OCc4cccc(C(=O)N5CCC[C@H]5C(=O)O)c4)cc3)cc(F)c(F)c2[nH]1 [compound of Ex. 41, 1-(3-{[4-(6,7-difluoro-2-methyl-1H-indol-4-yl)phenoxy]methyl}benzoyl)-L-proline]
